Assay results: patent publication US12616713B2, “Methods for enhancing vascular density” (priority 2016, dated 2026)
Entries after “also recorded” stand apart in the source; their conditions may differ.

Tests used:
HUVECs [1] = test: Cell proliferation assay, HUVECs; assay type: cell-based, human; settings: NMN 500 μM, 48 h, complete growth medium
Experimental: ECs (0.1×10^5 cells) were seeded in a 48-well plate and incubated with PBS (vehicle) or NMN (500 μM) in complete growth medium for 48 h. At the end of the incubation time, the cells were harvested and resuspended in Opti-MEM medium. Cell number was determined using flow cytometry (FACSCanto II Analyzer, BD Biosciences, USA).

HAECs = test: Spheroid sprouting assay, HAECs; assay type: cell-based, human
Experimental: ECs spheroids were generated as described previously (Korff and Augustin, 1998, J Cell Biol 143, 1341-1352). ECs (1000 cells per spheroid) were suspended in EGM-2 medium containing 20% methocel (viscosity: 4000 cps, Sigma) and seeded in non-adherent round-bottom 96-well plates (Sigma). Under these conditions all suspended cells contributed to the formation of a single spheroid. The spheroids were harvested after 24 h embedded into collagen gels. Sprouting was initiated by adding C2C12 CM or EBM-2 medium containing VEGF (50 ng/mL). NMN (0.5 mM), NaHS (0.1 mM), DAPT (20 μM, Cayman Chemical) or SU5416 (10 μM, Sigma) were added to the media wherever mentioned. Angiogenic activity was quantified by measuring the sprout length that had grown out of each spheroid analyzing 8-10 spheroids per group.

[2] = test system: MLECs from WT and ESKO mice; test: Apoptosis of serum-starved MLECs (Annexin V/PI); assay type: cell-based, mouse; settings: serum-starved overnight, SIRT1-dependent
Experimental: FIG. 38 is (A) a graph showing quantification of the relative cell number (n=12) of HUVECs incubated with PBS or NMN (0.5 mM) for 48 h in complete growth medium and cell number determined using flow cytometry. (B) a graph showing the number of apoptotic cells (Annexin V+/PI−) (n=12) when MLECs from WT and ESKO mice were serum-starved overnight, then assessed for apoptosis by Annexin V/PI staining and analyzed using flow cytometry. Data are expressed as mean±SEM. *p<0.05, **p<0.005, ***p<0.0005, ^δp<0.00005 by Student's t test (A), or two-way (B) ANOVA with Bonferroni's Multiple Comparisons Tests. (C) a schematic diagram of a model of how SIRT1 promotes sprouting angiogenesis. […]
HUVECs were treated with PBS (vehicle), NaHS (100 μM), NMN (500 μM) or NMN+NaHS for 6 h, followed by exposure to H2O2 (600 μM) for another 4 h. After treatments, the number of apoptotic cells was determined using Annexin V-FITC apoptosis detection kit (eBioscience) as per manufacturer's instructions. […] After mixing gently, the fluorescence intensity was detected with a flow cytometry (FACSCanto II Analyzer, BD Biosciences) at emission at 530 nm and 575 nm and excitation at 488 nm. Annexin-V and PI staining were detected with a flow cytometry (FACSCanto II Analyzer, BD Biosciences) at emission at 530 nm and 575 nm and excitation at 488 run.

HUVECs [3] = test: Tube formation assay, HUVECs after H2O2; assay type: cell-based, human; settings: H2O2 150 μM 1 h, NMN 500 μM 10 h
Experimental: Formation of tube networks was assessed as described before (Borradaile and Pickering, 2009, Aging Cell 8, 100-112). ECs were seeded at 10,000 cells per well in a 24-well plate (Corning) coated with 150 μL Cultrex reduced growth factor basement membrane extract (Trevigen). The cells were supplemented with C2C12 CM or EBM-2 medium containing VEGF (30 ng/mL) or FGF (30 ng/mL). NMN (0.5 mM) and NaHS (0.1 mM) were added to the media wherever mentioned. Following an 18 h-incubation, resulting tube networks were analyzed by light microscopy (Nikon Eclipse TiE). For tube formation assays with H2O2 treatment, cells were incubated with 150 μM H2O2 for 1 h before seeding and imaged after 10 h-incubation. The number of branch points and total length of tubule networks were quantified by ImageJ software.

C57BL/6J mice = test: Post-exercise blood lactate; assay type: in vivo, mouse; settings: 20-month old mice
Experimental: Mice were fasted for 6 h and blood glucose levels were measured by tail bleed (Accu Check Performa, Roche). Blood lactate was measured before and immediately after treadmill exercise training for 20 minutes at 15 meters/minute by tail bleed (Accutrend Plus, Roche). For VEGF analysis, whole blood was drawn from the retroorbital sinus under brief isoflurane anesthesia. The serum was collected and assayed for VEGF expression by ELISA (Eve Technologies, Canada). Urine was collected after a 2 h fast and analyzed for creatinine levels using a colorimetric assay kit (Cayman chemical, US) as per manufacturer's protocol.

## NC(=O)c1ccc[n+]([C@@H]2O[C@H](COP(=O)([O-])O)[C@@H](O)[C@H]2O)c1 [NMN, nicotinamide mononucleotide]
HUVECs [1]
  cell growth (relative cell number): promoted cell growth; also recorded: induced proliferation
HAECs; NT or SIRT1 siRNA, VEGF 50 ng/mL, NMN 0.5 mM
  ability of NMN to stimulate spheroid sprouting, dependence on SIRT1: SIRT1-dependent
HAECs; SU5416 10 μM plus NMN 0.5 mM
  rescue of SU5416-blocked sprouting: not rescued
HAECs; T3 or T6 siRNA, VEGF, NMN 0.5 mM
  VEGF-mediated spheroid sprouting after knockdown of SIRT3 and SIRT6: partially rescued
[2]
  apoptosis in ECs (Annexin V+/PI-): reduced apoptosis
HUVECs [3]
  VEGF mediated angiogenesis (tube formation) after treatment with H2O2: promoted VEGF mediated angiogenesis
C57BL/6J mice
  post-exercise blood lactate: 3.9 mmol/L
